Results on 4 compounds are retold here after ChEMBL document CHEMBL4340568, “Synthesis of distal and proximal fleximer base analogues and evaluation in the nucleocapsid protein of HIV-1” (Bioorg Med Chem, 2019).

For assay [1], the system named is Human immunodeficiency virus 1. In words: Antiviral activity against HIV1. It counts as functional, organism-based.
The test system of assay [2] is Human immunodeficiency virus 1. Put plainly: Binding affinity to HIV1 Nucleocapsid protein expressed in Escherichia coli BL21(DE3) pLysE at 1:1 ratio of compound/protein by 1H NMR spectroscopy.

Active and inactive are the calls of the source. No cut-off for these calls is given here.

`Nc1nc(-c2cc(=O)[nH]c(N)n2)cc(=O)[nH]1`: the result in assay [1] was inactive. As to `Nc1nc(-c2c[nH]cn2)cc(=O)[nH]1`, the result in assay [2] was Active. Also, the outcome in assay [1] was inactive. In the case of `Nc1ncc(-c2cnc(N)[nH]c2=O)c(=O)[nH]1`, in assay [1], the result was inactive.

As for `Nc1ncc(-c2c[nH]cn2)c(=O)[nH]1`, the outcome in assay [1] was inactive.
